Reference: US11028078B2 (The Johns Hopkins University, priority 2011, dated 2021)

Assays:
CYP3A4 [1] = target: T1, CYP3A4 (Homo sapiens, UniProt P08684); assay: CYP3A4 enzyme assay (Vivid CYP3A4 Green Screening Kit); assay type: in vitro ADME; settings: % enzyme inhibition at 1 μM drug / % enzyme inhibition at 1 μM itraconazole
T1 construct: purchased ThermoFisher P2857; host or cells: baculosomes
Description: And CYP3A4 inhibition was initially determined using a cell-free fluorescence-based assay at a final concentration of 1 μM (Table 7).
CYP3A4 enzyme assay. CYP3A4 enzyme activity was tested using Vivid™ CYP3A4 Green Screening Kit (ThermoFisher, #P2857) using the manufacturer's protocol. Briefly, CYP3A4 baculosomes and drugs were incubated 10 min at 37° C. Then Vivid® Substrates were added and the fluorescence (ex/em:485/520) were read every 1 min for 60 minute.

HUVEC [2] = assay: HUVEC proliferation assay ([3H]thymidine incorporation); assay type: cell-based, human; settings: HUVEC; for IC50: Homo sapiens, 3H thymidine incorporation, in μM, read-out: Proliferation IC50
In short: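 Pooled HUVEC at passage eight or lower, grown in EGM-2 medium; proliferation measured by [3H]thymidine incorporation as in an earlier published protocol.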

CYP3A4 [3] = target: T1, CYP3A4; assay: CYP3A4 enzyme assay (Vivid CYP3A4 Green Screening Kit); assay type: in vitro ADME
HUVEC tube formation = HUVEC tube formation assay on Matrigel; assay type: cell-based; settings: Homo sapiens, 20 h, read-out: inhibition of HUVEC tube formation (total tube length)
HUVEC [4] = assay: Filipin staining of intracellular cholesterol (NPC phenotype); assay type: cell-based, human; settings: 0.1 μM, 0.2 μM for 24 h in FIG. 14 legend
Description: Intracellular cholesterol was visualized using filipin staining and fluorescent images were captured under a confocal microscope.
(§1) We thus determined whether compound 248 shared the same mechanism with itraconazole. The intracellular cholesterol was detected using the cholesterol-binding fluorescent dye filipin. […] It is known that AMPK activation leads to mTOR inhibition.
Filipin staining. 2000 HUVECs were plated in chamber slide with 1 ml media and allowed to settle overnight. cCells were treated with 0.1 uM drug or DMSO for 14 hours. The the cells were fixed with 4% paraformaldehyde for 15 min. After washed, cells were incubated with 500 ul 50 ug/ml filipin solution for 1 hour in the dark. Then the cells were washed twice with PBS, mounted and covered with coverslip. The images were taken using confocal microscope under 360/460 nm.

VEGFR2 = VEGFR2 glycosylation in HUVEC (Western blot scoring); assay type: cell-based, human; settings: VEGFR2 hypoglycosylation score in HUVEC, 2 μM, 24 h; further: key: ++: robust; +: intermediate; −: absent
Gli1 transcript = assay: Quantification of Gli1 transcript by TaqMan analysis in MB cells (Hh pathway); assay type: cell-based, mouse
In short: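 After drug exposure, total RNA extracted from MB cells, reverse transcribed, and Gli1 quantified by TaqMan qPCR with mouse Gli-1 and actin primer/probe sets. Values expressed as fold induction relative to control by the 2^−ΔΔCt method, normalized to actin.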

[5] = test system: AMPKα, ACC1, mTOR, p70 S6 Kinase phosphorylation; assay: Western blot of AMPK/mTOR signaling in HUVEC; assay type: cell-based, human; settings: 24 h
Description: Cell lysates were subjected to Western blot.
as §1
Western blot. […] Then cells were lysed using RIPA buffer and the protein concentration were measured and normalized. After electrophoresis and transfer onto 0.45 um nitrocellulose membranes, the membranes were bolted with 5% BSA for 1 h and then incubated overnight at 4° C. Secondary antibody was applied to each membrane for 1 hour. Bolts were imaged using Syngene PXi imaging system after adding chemiluminescent substrate. The following antibodies were used for the assay: AMPKα (1:1,000, cell signaling, #2532s), phosphor-AMPKα (1:1,000, cell signaling #2535s), ACC (1:1,000, cell signaling #3662s), phosphor-ACC (1:1,000, cell signaling, #3661s), mTOR (1:1,000, cell signaling, #2972S), phosphor-mTOR (1:1,000, cell signaling, #9234s), p70 S6 Kinase (1:1,000, senta cruz, #sc-8418), phosphor-p70 S6 Kinase (1:1,000, cell signaling, #3662s), anti-Rabbit IgG (1:10000, GE lifesciences, #NA934V).

T1 sequence (P08684 whole entry): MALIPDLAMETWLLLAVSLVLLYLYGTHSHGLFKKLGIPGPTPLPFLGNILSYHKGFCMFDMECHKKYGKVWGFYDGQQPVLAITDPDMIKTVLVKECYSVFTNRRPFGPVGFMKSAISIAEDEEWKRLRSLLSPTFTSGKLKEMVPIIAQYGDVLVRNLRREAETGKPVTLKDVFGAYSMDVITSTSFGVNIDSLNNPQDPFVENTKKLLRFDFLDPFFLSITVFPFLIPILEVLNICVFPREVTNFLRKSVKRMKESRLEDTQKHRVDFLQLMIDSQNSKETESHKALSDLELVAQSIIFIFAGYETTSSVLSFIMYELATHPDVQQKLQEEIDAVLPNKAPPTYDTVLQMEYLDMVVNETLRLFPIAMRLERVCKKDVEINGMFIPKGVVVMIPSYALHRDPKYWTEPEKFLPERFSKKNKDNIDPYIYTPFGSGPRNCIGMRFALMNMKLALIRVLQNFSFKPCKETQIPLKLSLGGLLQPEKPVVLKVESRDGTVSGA

Compound	CYP3A4 Inhibition (compared to intracozanole at 1 μm) (CYP3A4 [1])	IC50 (HUVEC [2]) [µM]	other results
CCC(C)n1ncn(-c2ccc(N3CCN(c4ccc(OC[C@@H]5CO[C@@](CC)(c6ccc(Cl)cc6Cl)O5)cc4)CC3)cc2)c1=O (stereo partly drawn) [Compound 259, 1-sec-butyl-4-(4-(4-(4-(((2R,4R)-2-(2,4-dichlorophenyl)-2-ethyl-1,3-dioxolan-4-yl)methoxy)phenyl)piperazin-1-yl)phenyl)-1H-1,2,4-triazol-5(4H)-one]	No inhibition	0.314	CYP3A4 inhibition in dose response assays (CYP3A4 [3]; FIG. 12, higher concentrations): totally lost CYP3A4 inhibition
CCC(C)n1ncn(-c2ccc(N3CCN(c4ccc(OCC5COC(Cn6cncn6)(c6ccc(Cl)cc6Cl)O5)cc4)CC3)cc2)c1=O (stereo not drawn) [Itraconazole, reference compound]	–	–	inhibition at 5 µM (HUVEC tube formation): 45%; NPC phenotype (cholesterol accumulation in late endosome/lysosome) (HUVEC [4]): induce NPC phenotype; Glycosylation (2 μM dose) (VEGFR2): ++; Gli I Inhibition (IC90 Prolif. dose) (Gli1 transcript; Gli1 transcript fold induction score, MB cells exposed 24 h at the IC90 for MB proliferation): ++ (≤0.15); inhibition of Gli1 transcript levels (Gli1 transcript; established MB cultures, FIG. 9B): Dose-dependent inhibition
CCc1nccn1C[C@@]1(c2ccc(Cl)cc2Cl)OC[C@@H](COc2ccc(N3CCN(c4ccc(-n5cnn(C(C)CC)c5=O)cc4)CC3)cc2)O1 (stereo partly drawn) [Compound 243, 1-(sec-butyl)-4-(4-(4-(4-(((2S,4R)-2-(2,4-dichlorophenyl)-2-((2-ethyl-1H-imidazol-1-yl)methyl)-1,3-dioxolan-4-yl)methoxy)phenyl)piperazin-1-yl)phenyl)-1H-1,2,4-triazol-5(4H)-one]	0.08	0.225	–
CCC(C)n1ncn(-c2ccc(N3CCN(c4ccc(OC[C@@H]5CO[C@@](Cn6ccnc6)(c6ccc(Cl)cc6Cl)O5)cc4)CC3)cc2)c1=O (stereo partly drawn) [Compound 233, 4-(4-(4-(4-(((2S,4R)-2-((1H-imidazol-1-yl)methyl)-2-(2,4-dichlorophenyl)-1,3-dioxolan-4-yl)methoxy)phenyl)piperazin-1-yl)phenyl)-1-sec-butyl-1H-1,2,4-triazol-5(4H)-one]	1.18	0.085	–
CCC(C)n1ncn(-c2ccc(N3CCN(c4ccc(OC[C@@H]5CO[C@@](Cn6nnnc6-c6ccccc6)(c6ccc(Cl)cc6Cl)O5)cc4)CC3)cc2)c1=O (stereo partly drawn) [Compound 253, 1-sec-butyl-4-(4-(4-(4-(((2S,4R)-2-(2,4-dichlorophenyl)-2-((5-phenyl-1H-tetrazol-1-yl)methyl)-1,3-dioxolan-4-yl)methoxy)phenyl)piperazin-1-yl)phenyl)-1H-1,2,4-triazol-5(4H)-one]	0.22	0.119	–
CCC(C)n1ncn(-c2ccc(N3CCN(c4ccc(OC[C@@H]5COC(c6ccc(Cl)cc6Cl)O5)cc4)CC3)cc2)c1=O (stereo partly drawn) [Compound 262, 1-sec-butyl-4-(4-(4-(4-(((4R)-2-(2,4-dichlorophenyl)-1,3-dioxolan-4-yl)methoxy)phenyl)piperazin-1-yl)phenyl)-1H-1,2,4-triazol-5(4H)-one]	No inhibition	0.328	–
CCC(C)n1ncn(-c2ccc(N3CCN(c4ccc(OC[C@@H]5CO[C@@](CN(C)C)(c6ccc(Cl)cc6Cl)O5)cc4)CC3)cc2)c1=O (stereo partly drawn) [Compound 264, 1-(sec-butyl)-4-(4-(4-(4-(((2S,4R)-2-(2,4-dichlorophenyl)-2-((dimethylamino)methyl)-1,3-dioxolan-4-yl)methoxy)phenyl)piperazin-1-yl)phenyl)-1H-1,2,4-triazol-5(4H)-one]	No inhibition	1.4	–
CCC(C)n1ncn(-c2ccc(N3CCN(c4ccc(OC[C@@H]5CO[C@@](Cn6c(C)cnc6C)(c6ccc(Cl)cc6Cl)O5)cc4)CC3)cc2)c1=O (stereo partly drawn) [Compound 241, 1-(sec-butyl)-4-(4-(4-(4-(((2S,4R)-2-(2,4-dichlorophenyl)-2-((2,5-dimethyl-1H-imidazol-1-yl)methyl)-1,3-dioxolan-4-yl)methoxy)phenyl)piperazin-1-yl)phenyl)-1H-1,2,4-triazol-5(4H)-one]	0.27	0.492	Proliferation (IC50/IC50 Itra) (HUVEC [2]; Table 7, relative to itraconazole): 3.1
CCC(C)n1ncn(-c2ccc(N3CCN(c4ccc(OC[C@@H]5CO[C@@](CN6CCOCC6)(c6ccc(Cl)cc6Cl)O5)cc4)CC3)cc2)c1=O (stereo partly drawn) [Compound 263, 1-(sec-butyl)-4-(4-(4-(4-(((2S,4R)-2-(2,4-dichlorophenyl)-2-(morpholinomethyl)-1,3-dioxolan-4-yl)methoxy)phenyl)piperazin-1-yl)phenyl)-1H-1,2,4-triazol-5(4H)-one]	0.20	1.18	–
CCC(C)n1ncn(-c2ccc(N3CCN(c4ccc(OC[C@@H]5CO[C@@](Cn6cnnn6)(c6ccc(Cl)cc6Cl)O5)cc4)CC3)cc2)c1=O (stereo partly drawn) [Compound 248, 4-(4=(4-(4-(((2S,4R)-2-((1H-tetrazol-1-yl)methyl)-2-(2,4-dichlorophenyl)-1,3-dioxolan-4-yl)methoxy)phenyl)piperazin-1-yl)phenyl)-1-sec-butyl-1H-1,2,4-triazol-5(4H)-one]	0.02	–	phosphorylation of AMPKα at Thr172 ([5]; 0.01-1 μM, dose-dependent): increased; phosphorylation of acetyl CoA carboxylase 1 (ACC1) [5]: increased; phosphorylation of mTOR [5]: decrease; phosphorylation of p70 S6 Kinase (S6K) [5]: decrease; NPC phenotype (cholesterol accumulation in late endosome/lysosome) (HUVEC [4]): induced NPC phenotype; IC50 (CYP3A4 [3]; dose response, FIG. 12, read-out: CYP3A4 inhibition IC50): > 20000 nM
